Test results taken from ChEMBL document CHEMBL3407449, “Synthesis, anticancer and radiosensitizing evaluation of some novel sulfonamide derivatives” (Eur J Med Chem, 2015).

Legend:
[1] = system: HepG2; assay: Cytotoxicity against human HepG2 cells assessed as surviving fraction ratio at 25 uM after 48 hrs by SRB assay relative to control; format: functional
[2] = system: HepG2; assay: Cytotoxicity against human HepG2 cells assessed as surviving fraction ratio at 12.5 uM after 48 hrs by SRB assay relative to control; format: functional
[3] = system: HepG2; assay: Cytotoxicity against human HepG2 cells assessed as surviving fraction ratio after 48 hrs by SRB assay relative to control; format: functional, cell-based
[4] = system: HepG2; assay: Cytotoxicity against human HepG2 cells assessed as surviving fraction ratio at 5 uM after 48 hrs by SRB assay relative to control; format: functional
[5] = system: HepG2; assay: Cytotoxicity against human HepG2 cells assessed as surviving fraction ratio at 50 uM after 48 hrs by SRB assay relative to control; format: functional
[6] = system: HepG2; assay: Cytotoxicity against human HepG2 cells assessed as surviving fraction ratio incubated for 2 hrs prior to 8Gy gamma-irradiation measured after 48 hrs by ELISA reader relative to control; format: functional, cell-based; settings: HepG2, light or radiation study
[7] = system: HepG2; assay: Cytotoxicity against human HepG2 cells assessed as surviving fraction ratio at 50 uM incubated for 2 hrs prior to 8Gy gamma-irradiation measured after 48 hrs by ELISA reader relative to control; format: functional
[8] = system: HepG2; assay: Cytotoxicity against human HepG2 cells assessed as surviving fraction ratio at 25 uM incubated for 2 hrs prior to 8Gy gamma-irradiation measured after 48 hrs by ELISA reader relative to control; format: functional
[9] = system: HepG2; assay: Cytotoxicity against human HepG2 cells assessed as surviving fraction ratio at 5 uM incubated for 2 hrs prior to 8Gy gamma-irradiation measured after 48 hrs by ELISA reader relative to control; format: functional
[10] = system: HepG2; assay: Cytotoxicity against human HepG2 cells assessed as surviving fraction ratio at 12.5 uM incubated for 2 hrs prior to 8Gy gamma-irradiation measured after 48 hrs by ELISA reader relative to control; format: functional
[11] = Homo sapiens, HepG2, 48 h, read-out: IC50

Cc1ccc(S(=O)(=O)Nc2ccc(C(=O)/C=C/c3ccc(F)cc3)cc2)cc1
Ratio [1]: 0.383 | Ratio [2]: 0.497 | IC50 [3, 11]: 39.3 µM | Ratio [4]: 1.461 | Ratio [5]: 0.551

C/C(=N/NC(=O)C(C#N)C(=S)S)c1ccc(NS(=O)(=O)c2ccc(C)cc2)cc1 (stereo not given)
IC50 [6]: 5 µM | Ratio [1]: 0.291 | Ratio [2]: 0.229 | Ratio [7]: 0.158 | Ratio [8]: 0.189 | IC50 [3, 11]: 11 µM | Ratio [9]: 0.245 | Ratio [4]: 0.344 | Ratio [5]: 0.414 | Ratio [10]: 0.206

Cc1ccc(S(=O)(=O)Nc2ccc(C(=O)/C=C/c3ccccc3)cc2)cc1
Ratio [1]: 1.017 | Ratio [2]: 2.032 | IC50 ([3]; hepg2): Not Active | Ratio [4]: 2.385 | Ratio [5]: 0.529

C/C(=N/NC(=O)/C(C#N)=C/N(C)C)c1ccc(NS(=O)(=O)c2ccc(C)cc2)cc1
Ratio [1]: 0.546 | Ratio [2]: 0.877 | IC50 [3, 11]: 37.8 µM | Ratio [4]: 1.141 | Ratio [5]: 0.378

C/C(=N\NC(=O)CC#N)c1ccc(NS(=O)(=O)c2ccccc2)cc1
Ratio [1]: 0.361 | Ratio [2]: 0.778 | IC50 [3, 11]: 28 µM | Ratio [4]: 0.881 | Ratio [5]: 0.242

CC(=O)c1ccc(NS(=O)(=O)c2ccccc2)cc1
Ratio [1]: 0.464 | Ratio [2]: 0.719 | IC50 [3, 11]: 35.3 µM | Ratio [4]: 0.891 | Ratio [5]: 0.417

C/C(=N/n1c(N)c(C#N)c(-c2ccc([N+](=O)[O-])cc2)c(C#N)c1=O)c1ccc(NS(=O)(=O)c2ccc(C)cc2)cc1
IC50 [6]: 23.5 µM | Ratio [1]: 0.331 | Ratio [2]: 0.635 | Ratio [7]: 0.352 | Ratio [8]: 0.345 | IC50 [3, 11]: 31.5 µM | Ratio [9]: 0.439 | Ratio [4]: 0.951 | Ratio [5]: 0.408 | Ratio [10]: 0.603

Cc1ccc(S(=O)(=O)Nc2ccc(C(=O)/C=C/c3ccc(Cl)cc3)cc2)cc1
Ratio [1]: 0.591 | Ratio [2]: 1.478 | IC50 [3, 11]: 43.3 µM | Ratio [4]: 2.16 | Ratio [5]: 0.402

Cc1ccc(S(=O)(=O)Nc2ccc(-c3cc(-c4ccc([N+](=O)[O-])cc4)n(C(N)=S)n3)cc2)cc1
Ratio [1]: 1.078 | Ratio [2]: 1.759 | IC50 ([3]; hepg2): Not Active | Ratio [4]: 1.907 | Ratio [5]: 0.5

Cc1ccc(S(=O)(=O)Nc2ccc(C(=O)/C=C/c3ccc([N+](=O)[O-])cc3)cc2)cc1
IC50 [6]: 20.5 µM | Ratio [1]: 0.392 | Ratio [2]: 0.348 | Ratio [7]: 0.249 | Ratio [8]: 0.368 | IC50 [3, 11]: 26 µM | Ratio [9]: 0.558 | Ratio [4]: 0.476 | Ratio [5]: 0.495 | Ratio [10]: 0.451

Cc1ccc(S(=O)(=O)Nc2ccc(C(/C=C/c3ccc([N+](=O)[O-])cc3)=N\O)cc2)cc1
Ratio [1]: 1.351 | Ratio [2]: 1.769 | IC50 ([3]; hepg2): Not Active | Ratio [4]: 1.723 | Ratio [5]: 0.632

Cc1ccc(S(=O)(=O)Nc2ccc(-c3cc(-c4ccc([N+](=O)[O-])cc4)[nH]c(=O)n3)cc2)cc1
Ratio [1]: 0.732 | Ratio [2]: 0.95 | IC50 [3, 11]: 46.3 µM | Ratio [4]: 1.619 | Ratio [5]: 0.481

C/C(=N\NC(=O)c1sc(N)c(C#N)c1N)c1ccc(NS(=O)(=O)c2ccc(C)cc2)cc1
IC50 [6]: 5.8 µM | Ratio [1]: 0.39 | Ratio [2]: 0.383 | Ratio [7]: 0.174 | Ratio [8]: 0.105 | IC50 [3, 11]: 21.8 µM | Ratio [9]: 0.291 | Ratio [4]: 0.571 | Ratio [5]: 0.323 | Ratio [10]: 0.227

COc1ccc(-c2c(C#N)c(N)n(/N=C(/C)c3ccc(NS(=O)(=O)c4ccc(C)cc4)cc3)c(=O)c2C#N)cc1
Ratio [1]: 0.363 | Ratio [2]: 0.696 | IC50 [3, 11]: 31.8 µM | Ratio [4]: 0.984 | Ratio [5]: 0.375

C/C(=N\NC(=O)CC#N)c1ccc(NS(=O)(=O)c2ccc(C)cc2)cc1
Ratio [1]: 0.349 | Ratio [2]: 0.53 | IC50 [3, 11]: 26 µM | Ratio [4]: 0.837 | Ratio [5]: 0.293

Cc1ccc(S(=O)(=O)Nc2ccc(-c3cc(-c4ccc([N+](=O)[O-])cc4)n(C(=S)NN)n3)cc2)cc1
Ratio [1]: 0.507 | Ratio [2]: 1.189 | IC50 [3, 11]: 45.3 µM | Ratio [4]: 1.766 | Ratio [5]: 0.53

C/C(=N/n1c(N)cc(N)c(C#N)c1=O)c1ccc(NS(=O)(=O)c2ccccc2)cc1
IC50 [6]: 11.5 µM | Ratio [1]: 0.312 | Ratio [2]: 0.556 | Ratio [7]: 0.34 | Ratio [8]: 0.299 | IC50 [3, 11]: 25.5 µM | Ratio [9]: 0.395 | Ratio [4]: 0.748 | Ratio [5]: 0.321 | Ratio [10]: 0.194

Cc1ccc(S(=O)(=O)Nc2ccc(-c3cc(-c4ccc([N+](=O)[O-])cc4)[nH]n3)cc2)cc1
Ratio [1]: 0.522 | Ratio [2]: 1.197 | IC50 [3, 11]: 44.8 µM | Ratio [4]: 1.772 | Ratio [5]: 0.508

C/C(=N/NC(=O)c1sc2c(c1N)CCCC2)c1ccc(NS(=O)(=O)c2ccc(C)cc2)cc1
IC50 [6]: 20 µM | Ratio [1]: 0.331 | Ratio [2]: 0.528 | Ratio [7]: 0.229 | Ratio [8]: 0.329 | IC50 [3, 11]: 25.5 µM | Ratio [9]: 0.521 | Ratio [4]: 0.868 | Ratio [5]: 0.277 | Ratio [10]: 0.524

Cc1ccc(S(=O)(=O)Nc2ccc(C(=O)/C=C/c3ccc(Br)cc3)cc2)cc1
IC50 [6]: 26.8 µM | Ratio [1]: 0.43 | Ratio [2]: 0.505 | Ratio [7]: 0.408 | Ratio [8]: 0.394 | IC50 [3, 11]: 30.3 µM | Ratio [9]: 0.591 | Ratio [4]: 0.584 | Ratio [5]: 0.445 | Ratio [10]: 0.471

CC(=O)c1ccc(NS(=O)(=O)c2ccc(C)cc2)cc1
Ratio [1]: 0.547 | Ratio [2]: 0.726 | IC50 [3, 11]: 35.8 µM | Ratio [4]: 1.048 | Ratio [5]: 0.367

C/C(=N\n1c(N)cc(N)c(C#N)c1=O)c1ccc(NS(=O)(=O)c2ccc(C)cc2)cc1
Ratio [1]: 0.577 | Ratio [2]: 0.761 | IC50 [3, 11]: 37 µM | Ratio [4]: 0.937 | Ratio [5]: 0.385

Cc1ccc(S(=O)(=O)Nc2ccc(-c3cc(-c4ccc([N+](=O)[O-])cc4)n(-c4ccccc4)n3)cc2)cc1
Ratio [1]: 0.923 | Ratio [2]: 1.841 | IC50 ([3]; hepg2): Not Active | Ratio [4]: 2.085 | Ratio [5]: 0.536

C/C(=N\NC(=O)c1sc(N)c(C#N)c1N)c1ccc(NS(=O)(=O)c2ccccc2)cc1
IC50 [6]: 18.3 µM | Ratio [1]: 0.239 | Ratio [2]: 0.456 | Ratio [7]: 0.322 | Ratio [8]: 0.253 | IC50 [3, 11]: 23.3 µM | Ratio [9]: 0.526 | Ratio [4]: 0.869 | Ratio [5]: 0.274 | Ratio [10]: 0.386

Cc1ccc(/C=C/C(=O)c2ccc(NS(=O)(=O)c3ccc(C)cc3)cc2)cc1
Ratio [1]: 0.781 | Ratio [2]: 1.616 | IC50 [3, 11]: 49.8 µM | Ratio [4]: 1.931 | Ratio [5]: 0.489

Cc1ccc(S(=O)(=O)Nc2ccc(-c3cc(-c4ccc([N+](=O)[O-])cc4)[nH]c(=S)n3)cc2)cc1
Ratio [1]: 0.486 | Ratio [2]: 0.805 | IC50 [3, 11]: 36.5 µM | Ratio [4]: 1.066 | Ratio [5]: 0.398
